Assays:
[1] = Precipitation of the acidic solutions at room temperature within 24 hours; assay type: physicochemical; conditions: for precipitate on standing: room temperature, 12 hours
Method: (§1) As the pH of human gastric juice is 1-3, the above properties of mangiferin-berberine salt can be well dissolved in gastric juice, which is very conducive to the absorption of drugs in the body. Any ratio mangiferin-berberine composition can not increase the solubility in the acidic water.
Mark all above the mangiferin-berberine salt solutions, places them at room temperature, observe the phenomenon within 24 hours.

KK-ay mice = experiment: Effect on KK-ay mice (glucose, lipid, insulin, UAER, liver enzymes); assay type: in vivo; conditions: 40 mg/kg orally for 30 days, versus model group
Method: Mangiferin-berberine salt was obtained by the method of examples as above. Mangiferin-berberine salt was suspended with 3‰ sodium carboxymethyl cellulose before use. Rosiglitazone hydrochloride was purchased from Zhejiang wanma pharmaceutical Co., Ltd.
KK-ay mice, 16 weeks age, male.
KK-ay mice group (n=10); mangiferin-berberine salt low dose group (20 mg/kg, n=10, BML); mangiferin-berberine salt middle dose group (40 mg/kg, n=10, BMM); mangiferin-berberine salt high dose group (80 mg/kg, n=10), BMH metformin group[500 mg/kg, n=10]. Test samples or vehicle control was given orally for 30 days. KK-ay mice group were given vehicle.
The blood specimens were taken at the end of the experiment. Plasma glucose (GLU, mmol/L), lipid [triglycerides (TG, mmol/L), total cholesterol (TC, mmol/L), low density lipoprotein (LDL, mmol/L), high density lipoprotein (HDL, mmol/L)], liver enzyme [ALT(U/L) and AST(U/L)] were determined using GF-D800 semi-auto chemist which was purchased from Shandong Gaomi Caihong Analytical Instrument Co., Ltd.
Insulin: Radioimmunoassays (RIA), γ counter counts. insulin RIA Kit was purchased from Shandong Weifang City three-dimensional (3V) Biological Company. Urinary albumin. Collected urine for 24 h by metabolic cages, and recorded the output of urine. Urine was centrifuged, supernatant was taken, it was saved at −80° C. Free urinary were collected weekly Monday 13:00 by tail raise reflection. Assay urinary albumin by competitive ELISA, calculate the urinary albumin excretion rate (urinary albumin excretion rate=urinary albumin concentration (mg/L)×urine volume (ml)/total collection time (minutes)=mg/min, UAER), the units of figure is mg/24 h.
The results have been calculated as mean±SD ( x±SD) and comparisons of the data have been done by t-test.

TNF-α = experiment: Serum TNF-α in rheumatoid arthritis rat (ELISA); assay type: in vivo, rats; conditions: versus model group
Method: (§2) Wistar rats, female, 100±20 g. Acid-soluble Bovine-derived collagen type II (Collagen II) and Freund's incomplete adjuvant was purchased from Sigma. TNF-α kit was purchased from Nanjing Jiancheng Biological Engineering Institute.
(§3) The Acid-soluble Bovine-derived collagen type II (C II) with Freund's incomplete adjuvant, was made up to 2.5 mg/ml emulsion, Every rat was injected emulsion containing […] by intradermal in the right rear paw in order to inflame.
(§4) Normal rats group (control group, n=10); model rats group (n=10); mangiferin-berberine salt low dose group (10 mg/kg, n=10, BML); mangiferin-berberine salt middle dose group (20 mg/kg, n=10, BMM); mangiferin-berberine salt high dose group (40 mg/kg, n=10, BMH); Dexamethasone Sodium Phosphate group (0.1 mg/kg, Dexa, n=10).
(§5) Two weeks after primary immunization, test samples or vehicle control was given orally for 4 weeks. Normal and model rats group were given the saline of an equal volume.
4.2 Cytokines: The blood specimens were taken from femoral artery at the end of the experiment, and serum was extracted, then frozen. TNF-α was measured according to the instructions of ELISA kit.

[2] = Solubility of mangiferin-berberine salt in water; assay type: physicochemical
Method: Its chemical structure is as follows:
5 mg mangiferin-berberine salt powder which is weighed up accurately is put into 50 ml distilled water under 25° C.±2° C., the solution is shaken strongly 30 seconds every 5 minutes. There are solute particles in 30 minutes. The water solubility of mangiferin-berberine salt is less than 0.1 mg/ml. Mangiferin-berberine salt is hardly solubility substance in water.

[3] = Solubility in different pH water (hydrochloric acid adjusted); assay type: physicochemical
Method: as §1
Take pure water; add hydrochloric acid to adjust pH to 1 and 3 and 5 separately. Take the water 50 ml of different pH; weigh up accurately 50 mg mangiferin-berberine salt powder, put into the 50 ml water as above, shake and observe dissolved phenomena.
Take the water 50 ml of different pH 1 and 3; weigh up accurately 100 mg mangiferin-berberine salt powder, put into the 50 ml water as above, shake and observed dissolved phenomena.
Take the water 50 ml of pH 1; weigh up accurately 200 mg mangiferin-berberine salt powder, put into the 50 ml water as above, shake and observed dissolved situation.
Take the water 50 ml of pH 1 for three copies; weigh up accurately 50 mg mangiferin and berberine composition powder (the molecular ratio of mangiferin and berberine is 1:1, 1:3, 1:5), put into the 50 ml water as above separately, shake and observed dissolved phenomena. The trace of the mangiferin and berberine compositions that include all ratios as above can dissolve.

ACC = experiment: Phosphorylation of ACC in L6 cells (Western blot, phospho-ACC ser79); assay type: cell-based, rat; conditions: 1.25-5 μmol/L, 3 h, dose-dependent
Method: (§6) Mangiferin-berberine salt that is obtained by the method of embodiments as above dissolves in DMSO. Before use it is diluted by culture medium or HBS. The ultimate concentration of DMSO is less than 0.2%.
(§7) The rat L6 cell line was obtained from the ATCC. HG-DMEM was from GIBCO™. Fetal bovine serum (FBS) was purchased from Hyclone. Anti-AMPK, anti-ACC, antiphospho-AMPK (Thr172), antiphospho-ACC (ser79) polyclonal antibodies were from Cell Signal Technology.
(§8) L6 cells were grown in HG-DMEM containing 10% (v/v) FBS, 100 units/ml penicillin and 100 U/ml streptomycin in a humidified atmosphere of 5% CO2 at 37° C. When the cells covered 60%, the medium was switched to HG-DMEM with 2% FBS and the culture medium was replaced every two days until that the cells covered about 90%.
(§9) Cells in 6-well plates were starved in serum-free HG-DMEM, and then samples were added into serum-free HG-DMEM; the concentration of DMSO is 0.2%. The samples incubated for 3 h in the cells. […]
(§10) Samples were electrophoresed on 10% SDS-polyacrylamide gels, and transferred to PVDF membranes under 100V and 1-2 h in the transmembrane instrument. Protein in the gel was transferred to […] under the state of half dry, and the band was determined by Ponceau S (Ponceau S). […]

dementia rats = experiment: Effect on Aβ1-40-induced dementia rats (Morris water maze); assay type: in vivo; conditions: versus model group
Method: SD male rats, SPF, 250˜300 g, free drinking water and eating food, before the experiment in a lab environment adapted for 2-3d, the temperature of the laboratory was controlled at 25° C., relative humidity was 40%-80%.
Sham surgery rats group (control group, n=10) were injected the saline of an equal volume in the hippocampus; model rats group (n=10) were treated by Aβ1-40; mangiferin-berberine salt low dose group (20 mg/kg, n=10, BML); mangiferin-berberine salt middle dose group (40 mg/kg, n=10, BMM); mangiferin-berberine salt high dose group (80 mg/kg, n=10, BMH).
Test samples or vehicle control was given orally for 4 weeks, one week before modeled. Maze training period, administrated in 0.5 h before training.
Injected […] into the hippocampus of rats to establish animal model of AD. As follows: […]
Spatial learning and memory tests: Morris water maze method. Platform located in the northeast quadrant of the middle of the maze; the water level is 1.5 cm above the platform; the temperature of water was maintained at 19° C.˜20° C.; rats were continuously training for 5d, twice a day; we set the maximum swimming time of 70s, recorded the time that rats found the platform (latent period, EL) by stopwatch.

[4] = tested on: human hepatoma cell line Bel-7402; experiment: Chemosensitizing effect on tumor cells (MTT cytotoxicity); assay type: cell-based; conditions: 72 h
Method: Mangiferin-berberine salt (BM) was obtained by the method of embodiments as above. Cisplatin (DDP), adriamycin (ADM) and taxol were purchased from the market. Samples were dissolved in DMSO.
DMSO group, BM group (20 μmol/L), DDP group (1 μmol/L), ADM group (1 μmol/L), TAXOL group (1 μmol/L), BM (20 μmol/L)+DDP (1 μmol/L) group, BM (20 μmol/L)+ADM (1 μmol/L) group, BM (20 μmol/L)+TAXOL (1 μmol/L) group.
In accordance with 10^3-10^4/well, cultured human hepatoma cell line Bel-7402 200 μl per well were inoculated into 96-well cell culture plate, the samples were added after 24 hours. For those groups which are composed of the two samples, after mangiferin-berberine salt and cells were cultured together for 3 h, DDP or ADM or TAXOL were added, cultured for 72 h. Finally cell toxicity was determined by tetrazolium salt reduction (MTT). Experiments were repeated twice.

AMPK = experiment: Activation of AMPK in L6 cells (Western blot, phospho-AMPK Thr172); assay type: cell-based, rat; conditions: 1.25-5 μmol/L, 3 h, dose-dependent
Method: as §6, §7, §8, §9, §10

[5] = Accelerated stability test, content by HPLC; assay type: physicochemical
Method: Put several parts of mangiferin-berberine salt into glass bottles, seal, set inside drug stability chamber, set accelerated testing conditions to: 40° C.±2° C./75% RH+5% RH. At 0 and 1 and 2 months, sample, determine the content of mangiferin-berberine salt by HPLC.

rheumatoid arthritis rat = experiment: Effect on rheumatoid arthritis rat (collagen type II model), foot swelling; assay type: in vivo, rats; conditions: versus model group
Method: as §2, §3, §4, §5
Foot swelling: Measurement the volume of right hind foot by capillary enlarge measure method, calculated swelling growth percentage [(value after administration−value before administration)/value before administration]×100%.

[6] = high dose (40 mg/kg) orally for 4 weeks
[7] = middle dose (20 mg/kg) orally for 4 weeks

Question: With mangiferin-berberine salt as the substance, how does the precipitate on standing ([1]; pH 1, 4 mg/ml) read?
Answer: The precipitate on standing was “more precipitate”.

Question: What about the “precipitation in acid solution” value ([1]; pH 1-3, concentration below 2 mg/ml, within 12 hours) of the same substance?
Answer: The value was “precipitation is only traces”.

Question: What about the “precipitation in acid solution” value ([1]; pH 1-3, concentration greater than 4 mg/ml) of the same substance?
Answer: The value was “precipitates soon after it dissolves”.

Question: What about the precipitate on standing ([1]; pH 1 and 3, 1 mg/ml and 2 mg/ml) of the same substance?
Answer: The precipitate on standing was “trace precipitate”.

Question: What about the INS (KK-ay mice) of the same substance?
Answer: The INS was “significantly improves”.

Question: What about the ISI (KK-ay mice) of the same substance?
Answer: The ISI was “significantly improves”.

Question: What about the UAER (KK-ay mice) of the same substance?
Answer: The UAER was “significantly improves”.

Question: And the blood glucose (KK-ay mice)?
Answer: Its blood glucose is “significantly improves”.

Question: And the lipid (KK-ay mice)?
Answer: The lipid was “significantly improves”.

Question: And the liver enzymes (KK-ay mice)?
Answer: The liver enzymes was “significantly improves”.

Question: What about the “secretion of cytokine TNF-α” value (TNF-α; [6]) of the same substance?
Answer: Its value is “significantly inhibited”.

Question: What about the “secretion of cytokine TNF-α” value (TNF-α; [7]) of the same substance?
Answer: Its value is “significantly inhibited”.

Question: And the water solubility ([2]; 5 mg in 50 ml distilled water, 25° C.±2° C., 30 minutes)?
Answer: The water solubility was “less than 0.1 mg/ml”.

Question: What about the “solubility in boiling water” value ([2]; boiling water) of the same substance?
Answer: The value was “slightly soluble in boiling water”.

Question: What about the solubility in water ([2]; water) of the same substance?
Answer: The solubility in water was “Almost insoluble in water”.

Question: And the dissolved phenomena ([3]; 50 mg in 50 ml water, pH 1)?
Answer: Its dissolved phenomena is “dissolved rapidly in the water of pH 1 in a few seconds”.

Question: And the dissolved phenomena ([3]; 50 mg in 50 ml water, pH 3)?
Answer: The dissolved phenomena was “dissolved in the water of pH 3 in five minutes”.

Question: And the dissolved phenomena ([3]; 50 mg in 50 ml water, pH 5)?
Answer: The dissolved phenomena was “did not dissolve completely”.

Question: What about the dissolved phenomena ([3]; 100 mg in 50 ml water, pH 1) of the same substance?
Answer: Its dissolved phenomena is “dissolved in the water of pH 1 in a minute”.

Question: What about the dissolved phenomena ([3]; 100 mg in 50 ml water, pH 3) of the same substance?
Answer: The dissolved phenomena was “did not dissolve completely”.

Question: And the dissolved situation ([3]; 200 mg in 50 ml water, pH 1)?
Answer: Its dissolved situation is “can dissolve in the water of pH 1, but there is precipitation soon in the solution”.

Question: And the “solubility in strong acid solution” value ([3]; strong acid solution, the smaller the pH, the better it dissolves)?
Answer: The value was “dissolves in strong acid solution”.

Question: What about the “phosphorylation of ACC” value (ACC) of the same substance?
Answer: Its value is “increases significantly”.

Question: What about the “EL (latent period) of fifth day, Morris water maze” value (dementia rats; high dose (80 mg/kg) orally for 4 weeks) of the same substance?
Answer: The value was “significantly reduced”.

Question: And the “EL (latent period) of fifth day, Morris water maze” value (dementia rats; middle dose (40 mg/kg) orally for 4 weeks)?
Answer: The value was “significantly reduced”.

Question: What about the “cytotoxicity combined with ADM versus ADM alone” value ([4]; Bel-7402, BM 20 μmol/L 3 h before ADM 1 μmol/L) of the same substance?
Answer: The value was “significantly higher”.

Question: And the “cytotoxicity combined with DDP versus DDP alone” value ([4]; Bel-7402, BM 20 μmol/L 3 h before DDP 1 μmol/L)?
Answer: Its value is “significantly higher”.

Question: And the “cytotoxicity combined with TAXOL versus TAXOL alone” value ([4]; Bel-7402, BM 20 μmol/L 3 h before TAXOL 1 μmol/L)?
Answer: Its value is “significantly higher”.

Question: And the “phosphorylation of AMPK” value (AMPK)?
Answer: The value was “increases significantly”.

Question: What about the “content of mangiferin-berberine salt by HPLC” value ([5]; 40° C.±2° C./75% RH+5% RH, sealed glass bottles, 0, 1 and 2 months) of the same substance?
Answer: The value was “do not significantly change”.

Question: What about the “shelf time at room temperature” value ([5]; suggested from the accelerated test) of the same substance?
Answer: The value was over 1 year.

Question: And the paw swelling (rheumatoid arthritis rat; [6])?
Answer: Its paw swelling is “significantly inhibited”.

Question: What about the paw swelling (rheumatoid arthritis rat; [7]) of the same substance?
Answer: Its paw swelling is “significantly inhibited”.

— patent US8673864B2, “Mangiferin-berberine salt, manufacturing method and use thereof” (Hainan Deze Drug Research Co., Ltd., priority 2009, dated 2014)
